The values that follow come from patent US10815230B2, “Casein kinase 1 delta inhibitor” (ELECTROPHORETICS LIMITED, priority 2015, dated 2020).

The structures appear in SMILES notation.

The target of one assay is CK1e (Homo sapiens, UniProt P49674). Description: Kinase selectivity, % remaining activity. Format: biochemical. The conditions noted are these: 10 μM compound, 10 μM ATP, duplicate; for remaining activity at 10 µM: read-out: % of remaining activity (relative to DMSO). In short, it runs like this:
(§1)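 Single-point screen at 10 μM compound (DMSO), run in duplicate, with reactions at 10 μM ATP. Values are % remaining kinase activity relative to DMSO control.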

The target of a further assay is CK1g1 (Homo sapiens, UniProt Q9HCP0). Put plainly: Kinase selectivity, % remaining activity. The conditions noted are these: 10 μM compound, 10 μM ATP, duplicate; for remaining activity at 10 µM: read-out: % of remaining activity (relative to DMSO). In kind it is biochemical. In short, it runs like this:
as §1

The next assay has as its target CK1g2 (Homo sapiens, UniProt P78368). Description: Kinase selectivity, % remaining activity. In kind it is biochemical. The settings on record: 10 μM compound, 10 μM ATP, duplicate; for remaining activity at 10 µM: read-out: % of remaining activity (relative to DMSO). In short, it runs like this: as §1
In the next assay the target is DAPK1 (Homo sapiens, UniProt P53355). Put plainly: Kinase selectivity, % remaining activity. Format: biochemical. The settings on record: 10 μM compound, 10 μM ATP, duplicate; for remaining activity at 10 µM: read-out: % of remaining activity (relative to DMSO). In short, it runs like this:
as §1

Another assay concerns the target LCK (Homo sapiens, UniProt P06239). Description: Kinase selectivity, % remaining activity. In kind it is biochemical. The settings on record: 10 μM compound, 10 μM ATP, duplicate; for remaining activity at 10 µM: read-out: % of remaining activity (relative to DMSO). In short, it runs like this: as §1
The next assay has as its target P38a/MAPK14 (Homo sapiens, UniProt Q16539). Put plainly: Kinase selectivity, % remaining activity. Format: biochemical. The conditions noted are these: 10 μM compound, 10 μM ATP, duplicate; for remaining activity at 10 µM: read-out: % of remaining activity (relative to DMSO). In outline: as §1
In a further assay the target is PKCb2 (Homo sapiens, UniProt P05771). Description: Kinase selectivity, % remaining activity. In kind it is biochemical. The settings on record: 10 μM compound, 10 μM ATP, duplicate; for remaining activity at 10 µM: read-out: % of remaining activity (relative to DMSO). In short, it runs like this:
as §1

A further assay addresses ROCK1 (Homo sapiens, UniProt Q13464). Description: Kinase selectivity, % remaining activity. In kind it is biochemical. The conditions noted are these: 10 μM compound, 10 μM ATP, duplicate; for remaining activity at 10 µM: read-out: % of remaining activity (relative to DMSO). In outline: as §1
Assay [1] concerns TMHT (Thy-1 Mutated Human Tau) mouse. Description: In-vivo efficacy, Morris Water Maze in tau transgenic mice. The conditions noted are these: 30 mg/kg orally for 8 weeks. From the text: Various compounds of different classes (among them also antibody treatments) were positively tested for their efficacy in the TMHT model. Published examples are the γ-secretase modulator CHF5074 (Lanzilotta A, et al. The γ-secretase modulator CHF5074 reduces the accumulation of native hyperphosphoxylated tau in a transgenic mouse model of Alzheimer's disease. J Mol Neurosci. 45(1):22--33 (2010)), sodium selenate (Corcoran N M et al. Sodium selenate specifically activates PP2A phosphatase, dephosphorylates tau and reverses memory deficits in an Alzheimer's disease model. J Clin Neurosci. 17(8):1025-33 (2010)) and grape-seed polyphenol extract (Wang J et al. Grape derived polyphenols attenuate tau neuropathology in a mouse model of Alzheimer's disease. […] The effects of the compounds on learning in the Morris Mater Maze (MWM) were evaluated. Blood (plasma) and brain samples were collected after sacrification. Samples collected at sacrifice were plasma, left cortex, left hippocampus, right cortex, right hippocampus, remainder of left brain hemisphere, remainder of right brain hemisphere. In total 48 animals were used and allocated to 4 treatment groups. The start position of the mouse and the position of the platform (FIG. 1) in the different trials of the MWM were as indicated in Table 9: […] A descriptive statistical analysis was performed on all evaluated parameters. All data were represented as mean ±standard error of mean (SEM). MWM learning curve data of three trials per day were averaged. Over a period of 4 days, the ability to find a hidden platform using visual cues was measured performing 3 trials a day. By comparison of the learning curves, the cognitive abilities of the different treatment groups and possible drug effects were evaluated.

Assay [2] has as its target ABL1 (M351T) phosphorylated (Homo sapiens, UniProt P00519, M351T). Put plainly: KINOMEscan binding assay. The conditions noted are these: read-out: % Ctrl @ 10000 nM.
A further assay concerns the target CDK4-cyclinD1 (Homo sapiens, UniProt P11802). Put plainly: KINOMEscan binding assay. The conditions noted are these: read-out: % Ctrl @ 10000 nM.
Another assay has as its target CLK3 (Homo sapiens, UniProt P49761). Description: KINOMEscan binding assay. The settings on record: read-out: % Ctrl @ 10000 nM.
The target of the next assay is CSNK1D (Homo sapiens, UniProt P48730). Put plainly: KINOMEscan binding assay. The conditions noted are these: read-out: % Ctrl @ 10000 nM.
The next assay deals with CSNK2A2 (Homo sapiens, UniProt P19784). Put plainly: KINOMEscan binding assay. The conditions noted are these: read-out: % Ctrl @ 10000 nM.
For another assay, the target named is p38-gamma (Homo sapiens, UniProt P53778). Description: KINOMEscan binding assay. The conditions noted are these: read-out: % Ctrl @ 10000 nM.
The next assay deals with PAK6 (Homo sapiens, UniProt Q9NQU5). Put plainly: KINOMEscan binding assay. The settings on record: read-out: % Ctrl @ 10000 nM.
A further assay has as its target PCTK1 (Homo sapiens, UniProt Q00536). Description: KINOMEscan binding assay. The conditions noted are these: read-out: % Ctrl @ 10000 nM.
Another assay has as its target PRKD1 (Homo sapiens, UniProt Q15139). Description: KINOMEscan binding assay. The conditions noted are these: read-out: % Ctrl @ 10000 nM.
The target in another assay is PRKD3 (Homo sapiens, UniProt O94806). Description: KINOMEscan binding assay. The settings on record: read-out: % Ctrl @ 10000 nM.
A further assay deals with PYK2 (Homo sapiens, UniProt Q14289). Description: KINOMEscan binding assay. The settings on record: read-out: % Ctrl @ 10000 nM.
Another assay deals with RET (Homo sapiens, UniProt P07949). Description: KINOMEscan binding assay. The settings on record: read-out: % Ctrl @ 10000 nM.
A further assay concerns the target RET (M918T) (Homo sapiens, UniProt P07949, M918T). Description: KINOMEscan binding assay. The conditions noted are these: read-out: % Ctrl @ 10000 nM.
The next assay has as its target RIPK1 (Homo sapiens, UniProt Q13546). Put plainly: KINOMEscan binding assay. The settings on record: read-out: % Ctrl @ 10000 nM.
In a further assay the target is RIPK2 (Homo sapiens, UniProt O43353). Put plainly: KINOMEscan binding assay. The settings on record: read-out: % Ctrl @ 10000 nM.
The next assay addresses T1, WNK3 (Homo sapiens, UniProt Q9BYP7).
T1 construct: purchased DiscoveRx (KINOMEscan, LeadHunter Discovery services)
Put plainly: KINOMEscan binding assay. The conditions noted are these: read-out: % Ctrl @ 10000 nM.

Chain of CK1e (P49674 whole entry): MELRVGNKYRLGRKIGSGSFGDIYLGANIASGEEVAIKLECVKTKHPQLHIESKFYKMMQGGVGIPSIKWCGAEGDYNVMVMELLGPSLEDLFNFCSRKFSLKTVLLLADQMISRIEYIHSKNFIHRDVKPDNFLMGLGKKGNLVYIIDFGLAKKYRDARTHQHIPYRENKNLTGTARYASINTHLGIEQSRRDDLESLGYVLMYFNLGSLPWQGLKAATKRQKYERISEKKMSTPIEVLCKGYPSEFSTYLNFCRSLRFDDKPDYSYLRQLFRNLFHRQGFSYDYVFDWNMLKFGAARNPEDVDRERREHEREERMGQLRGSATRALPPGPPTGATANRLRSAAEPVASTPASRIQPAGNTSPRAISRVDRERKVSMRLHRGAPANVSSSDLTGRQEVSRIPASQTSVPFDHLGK
Chain of CK1g1 (Q9HCP0 whole entry): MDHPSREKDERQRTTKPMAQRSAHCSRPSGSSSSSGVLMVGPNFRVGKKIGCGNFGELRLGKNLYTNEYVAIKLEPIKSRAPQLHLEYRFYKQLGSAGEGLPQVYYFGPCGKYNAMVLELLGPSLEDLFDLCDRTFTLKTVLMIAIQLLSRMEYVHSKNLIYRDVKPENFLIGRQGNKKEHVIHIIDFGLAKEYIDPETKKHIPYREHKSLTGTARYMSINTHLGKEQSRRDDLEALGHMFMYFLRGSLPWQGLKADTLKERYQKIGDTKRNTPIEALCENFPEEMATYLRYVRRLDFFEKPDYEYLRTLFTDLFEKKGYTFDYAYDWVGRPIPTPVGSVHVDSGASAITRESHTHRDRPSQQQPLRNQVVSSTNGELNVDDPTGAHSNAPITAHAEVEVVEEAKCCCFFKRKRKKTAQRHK
Chain of PKCb2 (P05771 1-673 isoform P05771-2): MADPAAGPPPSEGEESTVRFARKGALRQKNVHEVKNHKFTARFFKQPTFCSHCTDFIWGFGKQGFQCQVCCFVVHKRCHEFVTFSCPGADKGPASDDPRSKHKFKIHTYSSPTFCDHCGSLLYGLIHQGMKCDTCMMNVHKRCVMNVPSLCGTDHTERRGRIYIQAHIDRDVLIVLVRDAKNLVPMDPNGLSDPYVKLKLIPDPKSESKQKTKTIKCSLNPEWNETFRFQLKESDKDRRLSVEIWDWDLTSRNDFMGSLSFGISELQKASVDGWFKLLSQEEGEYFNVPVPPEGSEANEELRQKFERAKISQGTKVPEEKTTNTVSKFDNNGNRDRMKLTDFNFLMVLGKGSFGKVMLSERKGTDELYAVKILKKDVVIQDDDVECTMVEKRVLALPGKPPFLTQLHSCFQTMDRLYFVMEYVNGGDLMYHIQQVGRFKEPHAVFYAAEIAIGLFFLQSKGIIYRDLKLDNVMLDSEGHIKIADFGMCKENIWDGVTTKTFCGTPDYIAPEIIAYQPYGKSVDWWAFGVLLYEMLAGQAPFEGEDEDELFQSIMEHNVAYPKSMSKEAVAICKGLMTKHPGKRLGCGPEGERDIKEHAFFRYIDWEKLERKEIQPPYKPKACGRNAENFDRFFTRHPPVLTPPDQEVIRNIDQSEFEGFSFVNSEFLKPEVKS
Chain of CK1g2 (P78368 whole entry, species assumed): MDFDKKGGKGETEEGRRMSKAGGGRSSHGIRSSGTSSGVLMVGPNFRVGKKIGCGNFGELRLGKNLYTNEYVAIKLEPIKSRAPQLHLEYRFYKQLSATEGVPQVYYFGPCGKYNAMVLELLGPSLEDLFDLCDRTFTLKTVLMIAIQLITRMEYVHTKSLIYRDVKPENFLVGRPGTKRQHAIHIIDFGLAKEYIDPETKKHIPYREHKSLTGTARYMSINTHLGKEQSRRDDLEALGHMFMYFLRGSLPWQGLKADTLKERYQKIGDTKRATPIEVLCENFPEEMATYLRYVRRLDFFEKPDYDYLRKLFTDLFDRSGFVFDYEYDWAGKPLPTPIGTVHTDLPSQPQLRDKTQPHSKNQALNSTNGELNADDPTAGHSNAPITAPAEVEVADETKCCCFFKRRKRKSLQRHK
Chain of ROCK1 (Q13464 whole entry): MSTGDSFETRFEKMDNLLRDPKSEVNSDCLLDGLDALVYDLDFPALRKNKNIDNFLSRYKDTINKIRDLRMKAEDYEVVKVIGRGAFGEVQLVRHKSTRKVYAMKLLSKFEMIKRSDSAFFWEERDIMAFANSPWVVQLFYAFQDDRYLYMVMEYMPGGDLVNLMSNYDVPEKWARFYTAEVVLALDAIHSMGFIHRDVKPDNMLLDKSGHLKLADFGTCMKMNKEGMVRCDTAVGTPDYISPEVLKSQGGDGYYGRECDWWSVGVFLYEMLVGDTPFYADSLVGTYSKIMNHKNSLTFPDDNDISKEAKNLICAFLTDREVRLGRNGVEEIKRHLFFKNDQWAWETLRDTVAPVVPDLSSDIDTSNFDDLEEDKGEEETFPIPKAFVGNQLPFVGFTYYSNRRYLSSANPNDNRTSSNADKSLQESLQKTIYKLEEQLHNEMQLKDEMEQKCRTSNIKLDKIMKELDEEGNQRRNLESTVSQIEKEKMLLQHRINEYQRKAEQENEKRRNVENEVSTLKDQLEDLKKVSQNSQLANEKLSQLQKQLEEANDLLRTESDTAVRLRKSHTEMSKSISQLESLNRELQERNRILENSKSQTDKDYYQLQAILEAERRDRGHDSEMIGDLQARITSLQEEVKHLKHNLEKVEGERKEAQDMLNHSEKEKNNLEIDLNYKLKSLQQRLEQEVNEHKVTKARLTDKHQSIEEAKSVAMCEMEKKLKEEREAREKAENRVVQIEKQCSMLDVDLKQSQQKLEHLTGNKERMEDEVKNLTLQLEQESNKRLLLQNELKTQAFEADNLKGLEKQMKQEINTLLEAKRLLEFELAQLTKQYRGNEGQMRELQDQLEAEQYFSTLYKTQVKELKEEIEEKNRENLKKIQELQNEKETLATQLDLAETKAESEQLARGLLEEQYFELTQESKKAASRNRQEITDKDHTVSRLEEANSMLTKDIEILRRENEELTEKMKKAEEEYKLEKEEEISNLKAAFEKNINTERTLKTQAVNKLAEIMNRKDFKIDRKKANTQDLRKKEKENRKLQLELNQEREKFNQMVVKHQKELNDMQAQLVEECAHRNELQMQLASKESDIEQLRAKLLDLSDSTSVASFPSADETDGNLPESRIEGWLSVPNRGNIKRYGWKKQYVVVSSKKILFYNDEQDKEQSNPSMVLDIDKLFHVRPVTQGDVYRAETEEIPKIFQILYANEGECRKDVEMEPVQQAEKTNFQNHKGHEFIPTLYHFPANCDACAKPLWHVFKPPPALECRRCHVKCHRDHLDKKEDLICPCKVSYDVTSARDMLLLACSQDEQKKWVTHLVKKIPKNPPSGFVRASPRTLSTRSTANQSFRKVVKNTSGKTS
Chain of DAPK1 (P53355 whole entry): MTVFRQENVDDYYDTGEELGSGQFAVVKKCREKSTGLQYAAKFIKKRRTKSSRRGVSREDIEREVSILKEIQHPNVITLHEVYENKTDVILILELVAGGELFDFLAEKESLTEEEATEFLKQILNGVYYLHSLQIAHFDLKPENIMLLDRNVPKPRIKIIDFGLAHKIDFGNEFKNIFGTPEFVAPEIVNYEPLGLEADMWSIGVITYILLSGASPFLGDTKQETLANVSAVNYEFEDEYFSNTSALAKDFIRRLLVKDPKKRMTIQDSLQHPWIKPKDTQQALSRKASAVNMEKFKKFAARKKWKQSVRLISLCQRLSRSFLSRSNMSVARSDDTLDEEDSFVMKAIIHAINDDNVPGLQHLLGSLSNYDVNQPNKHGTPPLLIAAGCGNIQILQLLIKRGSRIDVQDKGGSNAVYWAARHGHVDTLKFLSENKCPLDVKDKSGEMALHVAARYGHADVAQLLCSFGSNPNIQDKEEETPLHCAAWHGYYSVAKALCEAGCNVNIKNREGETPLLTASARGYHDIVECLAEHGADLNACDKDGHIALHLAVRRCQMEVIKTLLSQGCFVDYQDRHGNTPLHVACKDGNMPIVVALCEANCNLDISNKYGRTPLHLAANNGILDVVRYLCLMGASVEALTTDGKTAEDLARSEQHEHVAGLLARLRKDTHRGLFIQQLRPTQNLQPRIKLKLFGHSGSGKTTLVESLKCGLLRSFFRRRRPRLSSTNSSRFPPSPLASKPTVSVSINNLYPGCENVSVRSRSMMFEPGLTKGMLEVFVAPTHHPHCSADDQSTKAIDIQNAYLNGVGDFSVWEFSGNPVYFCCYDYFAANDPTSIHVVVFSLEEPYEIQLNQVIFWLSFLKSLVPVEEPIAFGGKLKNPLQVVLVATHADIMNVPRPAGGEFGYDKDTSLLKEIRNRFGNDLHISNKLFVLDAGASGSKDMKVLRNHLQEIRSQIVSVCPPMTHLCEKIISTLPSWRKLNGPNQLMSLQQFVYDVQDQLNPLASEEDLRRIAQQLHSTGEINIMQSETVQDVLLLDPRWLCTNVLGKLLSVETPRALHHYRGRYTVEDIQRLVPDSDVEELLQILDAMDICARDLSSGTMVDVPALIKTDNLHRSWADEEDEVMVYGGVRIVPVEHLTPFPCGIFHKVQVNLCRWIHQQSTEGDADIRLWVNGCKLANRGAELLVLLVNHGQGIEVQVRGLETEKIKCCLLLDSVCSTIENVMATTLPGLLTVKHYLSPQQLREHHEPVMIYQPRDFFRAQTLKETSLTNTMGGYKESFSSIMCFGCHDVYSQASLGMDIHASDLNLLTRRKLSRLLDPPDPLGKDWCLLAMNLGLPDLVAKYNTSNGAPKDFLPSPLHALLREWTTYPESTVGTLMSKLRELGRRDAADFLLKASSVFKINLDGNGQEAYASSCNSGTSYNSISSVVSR
Chain of P38a/MAPK14 (Q16539 whole entry): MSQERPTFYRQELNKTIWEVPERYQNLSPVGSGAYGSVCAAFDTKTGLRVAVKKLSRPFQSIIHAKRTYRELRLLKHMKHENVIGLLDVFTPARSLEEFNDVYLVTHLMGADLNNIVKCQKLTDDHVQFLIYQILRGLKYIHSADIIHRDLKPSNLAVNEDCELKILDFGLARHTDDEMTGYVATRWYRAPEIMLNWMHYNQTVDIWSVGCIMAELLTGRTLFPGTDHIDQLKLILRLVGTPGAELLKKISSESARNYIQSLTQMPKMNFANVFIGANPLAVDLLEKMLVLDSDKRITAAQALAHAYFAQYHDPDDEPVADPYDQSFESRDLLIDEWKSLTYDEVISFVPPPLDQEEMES

As usually defined, the remaining activity is the signal under treatment as a percentage of the control signal. On to `COc1ccc(C=C2N=C(c3cccs3)OC2=O)cc1` [Comparative Compound 315, 4-((4-methoxyphenyl)methylene)-2-(2-thienyl)-5(4H)-oxalone], for which the “% of remaining activity (relative to DMSO)” value at CK1e (listed as Cmp 315) is 6.51%; on CK1g1 (listed as Cmp 315) it was 73.02%; on CK1g2 (listed as Cmp 315), 50.52%; at DAPK1 (listed as Cmp 315) it was 90.84%; on LCK (listed as Cmp 315) it was 97.71%; at P38a/MAPK14 (listed as Cmp 315), 107.03%. Also, the figures for the “% of remaining activity (relative to DMSO)” value on PKCb2 (listed as Cmp 315) and at ROCK1 (listed as Cmp 315) were 110.56% and 90.20%, respectively. In addition, the remaining activity at 10 µM at CK1e was 5.45%; at CK1g1 it was 71.9%; at CK1g2, 47.3%; at DAPK1, 96%; at LCK, 94.9%; at P38a/MAPK14, 105%. Moreover, the remaining activity at 10 µM was 112% at PKCb2 and 93.4% on ROCK1.

For the compound `Nc1ncc(-c2nc3ccccc3o2)c(-c2ccncc2)n1` [Comparative Compound 324, 5-(1,3-benzoxazol-2-yl)-4-(pyridine-4-yl)pyrimidin-2-amine], the “Escape latency (time to reach the target), Mean ± SEM, Day 1” value in assay [1] was determined as 54.9 ± 2.66 s. Besides, in assay [1], the “Path length to reach the target, Mean ± SEM, Day 1” value stood at 8.81 ± 0.55 meter. The “Escape latency (time to reach the target), Mean ± SEM, Day 2” value in assay [1] was 46.6 ± 3.82 s. Also, the “Path length to reach the target, Mean ± SEM, Day 2” value in [1] is 6.77 ± 0.64 meter. Further, the “Escape latency (time to reach the target), Mean ± SEM, Day 3” value in assay [1] was found to be 39.8 ± 3.95 s. Besides, in assay [1], the “Path length to reach the target, Mean ± SEM, Day 3” value came to 5.25 ± 0.58 meter. The “Escape latency (time to reach the target), Mean ± SEM, Day 4” value in assay [1] amounted to 36.9 ± 3.87 s. Moreover, the “Path length to reach the target, Mean ± SEM, Day 4” value in assay [1] is on record as 5.17 ± 0.62 meter. Also, the remaining binding at 10 µM in assay [2] was 79%; on CDK4-cyclinD1, 85%; at CLK3, 99%; at CSNK1D, 3.8%; at CSNK2A2, 79%; at p38-gamma, 61%. In addition, the remaining binding at 10 µM at PAK6 was 100%; at PCTK1 it was 95%; on PRKD1, 100%; at PRKD3, 91%; on PYK2, 100%; at RET it was 94%. Moreover, the remaining binding at 10 µM on RET (M918T) is 88%; at RIPK1 it was 100%; at RIPK2, 85%; on WNK3, 89%. In addition, the “% of remaining activity (relative to DMSO)” value came out at 24.86% at CK1e (listed as Cmp 324); 92.69% at CK1g1 (listed as Cmp 324); 58.69% on CK1g2 (listed as Cmp 324); 95.46% at LCK (listed as Cmp 324); 48.46% on P38a/MAPK14 (listed as Cmp 324); 103.51% on PKCb2 (listed as Cmp 324). Also, the “% of remaining activity (relative to DMSO)” value at ROCK1 (listed as Cmp 324) was found to be 109.68%. Besides, the remaining activity at 10 µM worked out at 28.2% on CK1e; 99% at CK1g1; 58% on CK1g2; 102% at LCK; 53.9% on P38a/MAPK14; 101% at PKCb2. Further, the remaining activity at 10 µM at ROCK1 amounted to 109%.

In the case of `Nc1ncnc2c1c(COc1cccc(Cl)c1)nn2C1CCOCC1` [PF4800567, 3-[(3-Chlorophenoxy)methyl]-1-(tetrahydro-2H-pyran-4-yl)-1H-pyrazolo[3,4-d]pyrimidin-4-amine], in [1], the “Escape latency (time to reach the target), Mean ± SEM, Day 1” value worked out at 51.1 ± 3.10 s; the “Path length to reach the target, Mean ± SEM, Day 1” value turned out to be 8.00 ± 0.54 meter; the “Escape latency (time to reach the target), Mean ± SEM, Day 2” value amounted to 50.0 ± 3.49 s; the “Path length to reach the target, Mean ± SEM, Day 2” value amounted to 7.51 ± 0.56 meter. For the same compound, in assay [1], the “Escape latency (time to reach the target), Mean ± SEM, Day 3” value amounted to 43.6 ± 3.86 s; the “Path length to reach the target, Mean ± SEM, Day 3” value is 5.83 ± 0.61 meter; the “Escape latency (time to reach the target), Mean ± SEM, Day 4” value came to 44.0 ± 3.72 s; the “Path length to reach the target, Mean ± SEM, Day 4” value is reported as 5.70 ± 0.58 meter. In addition, the remaining activity at 10 µM at CK1e turned out to be 3%. The remaining activity at 10 µM at CK1g1 was 85.1%. In addition, the remaining activity at 10 µM at CK1g2 worked out at 86%. Also, on DAPK1, the remaining activity at 10 µM came to 92.5%. Further, on LCK, the remaining activity at 10 µM was 19.9%. At P38a/MAPK14, the remaining activity at 10 µM was 71.2%. For the same compound, the remaining activity at 10 µM at PKCb2 is 88.5%. In addition, on ROCK1, the remaining activity at 10 µM was 95.2%.
